Data: ChEMBL document CHEMBL6087422, “A promising class of antiprotozoal agents, design and synthesis of novel Pyrimidine-Cinnamoyl hybrids” (Eur J Med Chem, 2025)
Calls of active or inactive are those of the source. No cut-off for these calls is given here.

Experiments:
Plasmodium falciparum [1] = test: Antimalarial activity against […] Plasmodium falciparum 3D7 assessed as growth inhibition by isotopic micro drug susceptibility assay; format: functional, organism-based
Plasmodium falciparum [2] = test: Antimalarial activity against chloroquine-sensitive Plasmodium falciparum W2 assessed as growth inhibition by isotopic micro drug susceptibility assay; format: functional, organism-based
Plasmodium falciparum [3] = test: Antimalarial activity against chloroquine-sensitive Plasmodium falciparum NF54 assessed as inhibition of parasite growth measured after 24 hrs by parasite lactate dehydrogenase (pLDH) assay; format: functional, organism-based; details: NF54, 24 h
[4] = Haemolytic activity in human RBC assessed as haemolysis at 50 uM for 48 hrs by haemolysis assay; format: toxicity, cell-based, Erythrocyte; details: human red blood cells, read-out: Activity
[5] = Cytotoxicity against HEK293 cells assessed as cell viability incubated for 48 hrs by MTT assay; format: toxicity, cell-based; details: human
[6] = Selectivity index, ratio of IC50 for cytotoxicity against HEK293 cells to IC50 for antimalarial activity against chloroquine sensitive Plasmodium falciparum NF54 assessed as inhibition of parasite growth measured after 24 hrs by parasite lactate dehydrogenase (pLDH) assay; format: toxicity, cell-based; details: human, HEK293 cells versus Plasmodium falciparum NF54, read-out: Ratio IC50
Plasmodium falciparum [7] = test: Antimalarial activity against chloroquine-resistant intra-erythrocytic stage Plasmodium falciparum; format: functional, organism-based
Plasmodium berghei = test: In vivo antiplasmodial activity against Plasmodium berghei assessed as growth inhibition at 100 mg/kg measured after 21 days relative to control; format: functional; set-up: scale not given: the % may be the effect or the level left; details: time 21 day
Plasmodium falciparum [8] = test: Binding affinity to 6xHis tagged recombinant Plasmodium falciparum Hsp70-z extracted from Escherichia coli assessed as association rate constant (Ka) incubated for 3 mins by SPR analysis
[9] = Binding affinity to 6xHis tagged recombinant Plasmodium falciparum Hsp70-z extracted from Escherichia coli assessed as dissociation rate constant (Kd) incubated for 10 mins by SPR analysis
Plasmodium falciparum [10] = test: Binding affinity to 6xHis tagged recombinant Plasmodium falciparum Hsp70-1 extracted from Escherichia coli assessed as association rate constant (Ka) incubated for 3 mins by SPR analysis
Plasmodium falciparum [11] = test: Antimalarial activity against chloroquine-sensitive Plasmodium falciparum NF54 assessed as reduction of schizonts at IC50 concentration incubated for 48 hrs by microscopic analysis; format: functional, organism-based
[12] = Binding affinity to 6xHis tagged recombinant Plasmodium falciparum Hsp70-z extracted from Escherichia coli assessed as dissociation constant (KD) incubated for 10 mins by SPR analysis
[13] = Binding affinity to 6xHis tagged recombinant Plasmodium falciparum Hsp70-1 extracted from Escherichia coli assessed as dissociation constant (KD) incubated for 10 mins by SPR analysis
Plasmodium falciparum [14] = test: Binding affinity to 6xHis tagged recombinant Plasmodium falciparum Hsp70-1 extracted from Escherichia coli by SPR analysis
Plasmodium falciparum [15] = test: Binding affinity to 6xHis tagged recombinant Plasmodium falciparum Hsp70-z extracted from Escherichia coli by SPR analysis
[16] = Binding affinity to 6xHis tagged recombinant Plasmodium falciparum Hsp70-1 extracted from Escherichia coli assessed as dissociation rate constant (Kd) incubated for 10 mins by SPR analysis
Plasmodium falciparum [17] = test: Antimalarial activity against chloroquine-sensitive Plasmodium falciparum NF54 assessed as reduction of second generation rings at IC50 concentration incubated for 48 hrs by microscopic analysis; format: functional, organism-based

| Compound | IC50 (Plasmodium falciparum [3]) [nM] | hemolysis at 48 h, 50 µM [4] [%] | further results |
| --- | --- | --- | --- |
| CO[C@H]1/C=C/O[C@@]2(C)Oc3c(C)c(O)c4c(O)c(c(/C=N/N5CCN(C)CC5)c(O)c4c3C2=O)NC(=O)/C(C)=C\C=C\[C@H](C)[C@H](O)[C@@H](C)[C@@H](O)[C@@H](C)[C@H](OC(C)=O)[C@@H]1C [RIFAMPIN] | – | – | IC50 (Plasmodium falciparum [1]): 3200 nM; IC50 (Plasmodium falciparum [2]): 1300 nM |
| CCc1ccc(-c2cc(-c3ccc(OC)c(OC)c3)nc(N3CCN(C(=O)/C=C/c4ccc(C)cc4)CC3)n2)cc1 | 1560 | 0.01 | – |
| COc1ccc(-c2cc(-c3ccc(OC)cc3)nc(N3CCN(C(=O)/C=C/c4ccc(Cl)cc4)CC3)n2)cc1 | 2710 | 0.01 | – |
| CCc1ccc(-c2cc(-c3ccc(OC)c(OC)c3)nc(N3CCN(C(=O)/C=C/c4ccc[nH]4)CC3)n2)cc1 | 720 | 0.01 | – |
| CC[C@@]1(O)C(=O)OCc2c1cc1n(c2=O)Cc2cc3ccccc3nc2-1 [CAMPTOTHECIN] | – | – | IC50 at 48 h [5]: 200 nM |
| COc1ccc(-c2cc(-c3ccc(C)cc3)nc(N3CCN(C(=O)/C=C/c4ccc(Cl)cc4)CC3)n2)cc1 | 1720 | 0.01 | – |
| COc1ccc(-c2cc(-c3ccc(C)cc3)nc(N3CCN(C(=O)/C=C/c4ccccc4)CC3)n2)cc1 | 2720 | 0.01 | – |
| COc1ccc(-c2cc(-c3ccc(C)cc3)nc(N3CCNCC3)n2)cc1 | 5000 | 0.01 | – |
| COc1ccc(-c2cc(-c3ccc(C)cc3)nc(N3CCN(C(=O)/C=C/c4ccc(C)cc4)CC3)n2)cc1 | 2330 | 0.01 | – |
| COc1ccc(-c2cc(-c3ccc(C)cc3)nc(N3CCN(C(=O)/C=C/c4ccc(OC)c(OC)c4)CC3)n2)cc1 | 600 | 0.01 | selectivity ratio at 24 h [6]: 1.54; IC50 at 48 h [5]: 930 nM |
| CCc1ccc(-c2cc(-c3ccc(OC)c(OC)c3)nc(N3CCN(C(=O)/C=C/c4ccc(Cl)cc4)CC3)n2)cc1 | 200 | 0.01 | selectivity ratio at 24 h [6]: 4.34; IC50 at 48 h [5]: 870 nM |
| Cc1ccc(/C=C/C(=O)N2CCN(c3nc(-c4ccc(Cl)cc4)cc(-c4cccnc4)n3)CC2)cc1 | 3670 | 0.01 | – |
| O=C(/C=C/c1ccccc1)N1CCN(c2nc(-c3cccnc3)cc(-c3ccoc3)n2)CC1 | 5000 | 0.01 | – |
| COc1ccc(/C=C/C(=O)N2CCN(c3nc(-c4ccc(OC)cc4)cc(-c4ccc(OC)cc4)n3)CC2)cc1 | 5000 | 0.01 | – |
| COc1ccc(-c2cc(-c3ccc(OC)cc3)nc(N3CCN(C(=O)/C=C/c4ccc(C)cc4)CC3)n2)cc1 | 3580 | 0.01 | – |
| COc1ccc(-c2cc(-c3ccc(Cl)cc3)nc(N3CCN(C(=O)/C=C/c4ccccc4)CC3)n2)cc1 | 6020 | 0.01 | – |
| COc1cc(/C=C/C(=O)CC(=O)/C=C/c2ccc(O)c(OC)c2)ccc1O [CURCUMIN] | – | – | IC50 (Plasmodium falciparum [7]): ~5000 nM; Activity (Plasmodium berghei): 100% |
| COc1ccc(-c2cc(-c3ccc(OC)cc3)nc(N3CCN(C(=O)/C=C/c4ccccc4)CC3)n2)cc1 | 4090 | 0.01 | – |
| CCN(CC)CCCC(C)Nc1ccnc2cc(Cl)ccc12 (configuration not stated) [CHLOROQUINE] | – | 0.01 | – |
| COc1ccc(-c2cc(-c3ccc(OC)cc3)nc(N3CCN(C(=O)/C=C/c4ccc(OC)c(OC)c4)CC3)n2)cc1 | 5000 | 0.01 | – |
| CCc1ccc(-c2cc(-c3ccc(OC)c(OC)c3)nc(N3CCN(C(=O)/C=C/c4ccccc4)CC3)n2)cc1 | 210 | 0.01 | selectivity ratio at 24 h [6]: 16.8; Ka (Plasmodium falciparum [8]): 8.28 10^6/M.s; Kd [9]: 8.97 10^-2(1/s); Ka (Plasmodium falciparum [10]): 7.97 10^6/M.s; Activity (Plasmodium falciparum [11]): Active; Kd [12]: 10.8 nM; Kd [13]: 9.69 nM; Activity (Plasmodium falciparum [14]): Dose-dependent-effect; IC50 at 48 h [5]: 3550 nM; Activity (Plasmodium falciparum [15]): Dose-dependent-effect; Kd [16]: 7.72 10^-2(1/s); Activity (Plasmodium falciparum [17]): Active |
| COc1ccc(-c2cc(-c3ccc(OC)cc3)nc(N3CCN(C(=O)/C=C/c4ccc[nH]4)CC3)n2)cc1 | 7430 | 0.01 | selectivity ratio at 24 h [6]: 0.5; IC50 at 48 h [5]: 3690 nM |
| C=C[C@H]1CN2CC[C@H]1C[C@H]2[C@H](O)c1ccnc2ccc(OC)cc12 [QUININE] | 110 | 0.01 | selectivity ratio at 24 h [6]: 1240 |
| CCc1ccc(-c2cc(-c3ccc(OC)c(OC)c3)nc(N3CCN(C(=O)/C=C/c4ccc(OC)cc4)CC3)n2)cc1 | 180 | 0.01 | selectivity ratio at 24 h [6]: 18.6; Ka (Plasmodium falciparum [8]): 6.24 10^6/M.s; Kd [9]: 9.79 10^-2(1/s); Ka (Plasmodium falciparum [10]): 5.92 10^6/M.s; Activity (Plasmodium falciparum [11]): Active; Kd [12]: 15.7 nM; Kd [13]: 1.57 nM; Activity (Plasmodium falciparum [14]): Dose-dependent-effect; IC50 at 48 h [5]: 3360 nM; Activity (Plasmodium falciparum [15]): Dose-dependent-effect; Kd [16]: 9.29 10^-2(1/s); Activity (Plasmodium falciparum [17]): Active |
